#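 These data come from cells grown in 96-well plates and exposed to compound for 48 hours at five concentrations. GI50: concentration for 50% inhibition of growth. TGI marks complete inhibition of growth.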
# Legend:
# Assay in all cases: inhibition of tumour cell growth, NCI panel, 48 h
# OVCAR-3 ovarian = test system: OVCAR-3 ovarian
# MALME-3M melanoma = test system: MALME-3M melanoma
# NCI/ADR-RES ovarian = test system: NCI/ADR-RES ovarian
# HCT-116 colon = test system: HCT-116 colon
# A549 NSCLC = test system: A549 NSCLC
# LOX IMVI melanoma = test system: LOX IMVI melanoma
# PC-3 prostate = test system: PC-3 prostate
# HOP-92 NSCLC = test system: HOP-92 NSCLC
# OVCAR-5 ovarian = test system: OVCAR-5 ovarian
# MDA-MB-231 breast = test system: MDA-MB-231 breast
# OVCAR-8 ovarian = test system: OVCAR-8 ovarian
# COLO 205 colon = test system: COLO 205 colon
# RPMI-8226 leukemia = test system: RPMI-8226 leukemia
# UACC-257 melanoma = test system: UACC-257 melanoma
# HT29 colon = test system: HT29 colon
# IGROV1 ovarian = test system: IGROV1 ovarian
# SK-MEL-2 melanoma = test system: SK-MEL-2 melanoma
# SR leukemia = test system: SR leukemia
# SNB-19 CNS = test system: SNB-19 CNS
# SNB-75 CNS = test system: SNB-75 CNS
# UACC-62 melanoma = test system: UACC-62 melanoma
# SK-MEL-5 melanoma = test system: SK-MEL-5 melanoma
# DU-145 prostate = test system: DU-145 prostate
# HS 578T breast = test system: HS 578T breast
# SK-MEL-28 melanoma = test system: SK-MEL-28 melanoma
# CCRF-CEM leukemia = test system: CCRF-CEM leukemia
# SW-620 colon = test system: SW-620 colon
# U251 CNS = test system: U251 CNS
# HCC-2998 colon = test system: HCC-2998 colon
# SN12C renal = test system: SN12C renal
# HCT-15 colon = test system: HCT-15 colon
# 786-0 renal = test system: 786-0 renal
# MCF7 breast = test system: MCF7 breast
# UO-31 renal = test system: UO-31 renal
# NCI-H226 lung = test system: NCI-H226 lung
# TK-10 renal = test system: TK-10 renal
# HL-60(TB) leukemia = test system: HL-60(TB) leukemia
# ACHN renal = test system: ACHN renal
# CAKI-1 renal = test system: CAKI-1 renal
# SF-268 CNS = test system: SF-268 CNS
# HOP-62 NSCLC = test system: HOP-62 NSCLC
# K-562 leukemia = test system: K-562 leukemia
# A498 renal = test system: A498 renal
# MOLT-4 leukemia = test system: MOLT-4 leukemia
# NCI-H460 lung = test system: NCI-H460 lung
# SF-295 CNS = test system: SF-295 CNS
# NCI-H23 lung = test system: NCI-H23 lung
# SK-OV-3 ovarian = test system: SK-OV-3 ovarian
# KM12 colon = test system: KM12 colon
# OVCAR-4 ovarian = test system: OVCAR-4 ovarian
# M14 melanoma = test system: M14 melanoma
# EKVX NSCLC = test system: EKVX NSCLC
# SF-539 CNS = test system: SF-539 CNS
# NCI-H522 lung = test system: NCI-H522 lung
smiles,measurement,setting,value
COc1cc(-c2n[nH]nc2-c2ccc3c(c2)OCCO3)cc(OC)c1OC,GI50,OVCAR-3 ovarian,< 0.01 µM
same,GI50,MALME-3M melanoma,17.6 µM
same,TGI,MALME-3M melanoma,72.3 µM
same,GI50,NCI/ADR-RES ovarian,< 0.01 µM
same,TGI,NCI/ADR-RES ovarian,69.7 µM
same,GI50,HCT-116 colon,< 0.01 µM
same,TGI,HCT-116 colon,0.811 µM
same,GI50,A549 NSCLC,0.0229 µM
same,TGI,A549 NSCLC,22.6 µM
same,GI50,LOX IMVI melanoma,0.0175 µM
same,TGI,LOX IMVI melanoma,37.8 µM
same,GI50,PC-3 prostate,0.0184 µM
same,TGI,PC-3 prostate,39.4 µM
same,GI50,HOP-92 NSCLC,< 0.01 µM
same,TGI,HOP-92 NSCLC,0.543 µM
same,GI50,OVCAR-5 ovarian,2.18 µM
same,TGI,OVCAR-5 ovarian,> 100 µM
same,GI50,MDA-MB-231 breast,0.0444 µM
same,TGI,MDA-MB-231 breast,> 100 µM
same,GI50,OVCAR-8 ovarian,0.0418 µM
same,TGI,OVCAR-8 ovarian,35 µM
same,GI50,COLO 205 colon,0.0267 µM
same,TGI,COLO 205 colon,0.0774 µM
same,GI50,RPMI-8226 leukemia,0.0325 µM
same,TGI,RPMI-8226 leukemia,11 µM
same,GI50,UACC-257 melanoma,3.73 µM
same,TGI,UACC-257 melanoma,23.1 µM
same,GI50,HT29 colon,0.0253 µM
same,TGI,HT29 colon,12.3 µM
same,GI50,IGROV1 ovarian,0.0332 µM
same,TGI,IGROV1 ovarian,30.3 µM
same,GI50,SK-MEL-2 melanoma,< 0.01 µM
same,TGI,SK-MEL-2 melanoma,18.1 µM
same,GI50,SR leukemia,< 0.01 µM
same,TGI,SR leukemia,23.9 µM
same,GI50,SNB-19 CNS,0.0294 µM
same,TGI,SNB-19 CNS,> 100 µM
same,GI50,SNB-75 CNS,< 0.01 µM
same,TGI,SNB-75 CNS,21.9 µM
same,GI50,UACC-62 melanoma,2.28 µM
same,TGI,UACC-62 melanoma,21.2 µM
same,GI50,SK-MEL-5 melanoma,< 0.01 µM
same,TGI,SK-MEL-5 melanoma,0.166 µM
same,GI50,DU-145 prostate,0.025 µM
same,TGI,DU-145 prostate,> 100 µM
same,GI50,HS 578T breast,0.668 µM
same,TGI,HS 578T breast,64.2 µM
same,GI50,SK-MEL-28 melanoma,2.88 µM
same,TGI,SK-MEL-28 melanoma,34.8 µM
same,GI50,CCRF-CEM leukemia,0.0337 µM
same,TGI,CCRF-CEM leukemia,> 100 µM
same,GI50,SW-620 colon,< 0.01 µM
same,TGI,SW-620 colon,> 100 µM
same,GI50,U251 CNS,0.0201 µM
same,TGI,U251 CNS,22.7 µM
same,GI50,HCC-2998 colon,0.0394 µM
same,TGI,HCC-2998 colon,17.5 µM
same,GI50,SN12C renal,0.133 µM
same,TGI,SN12C renal,> 100 µM
same,GI50,HCT-15 colon,< 0.01 µM
same,TGI,HCT-15 colon,> 100 µM
same,GI50,786-0 renal,< 0.01 µM
same,TGI,786-0 renal,13.5 µM
same,GI50,MCF7 breast,< 0.01 µM
same,TGI,MCF7 breast,37.9 µM
same,GI50,UO-31 renal,< 0.01 µM
same,TGI,UO-31 renal,24.6 µM
same,GI50,NCI-H226 lung,0.0609 µM
same,TGI,NCI-H226 lung,64.1 µM
same,GI50,TK-10 renal,4.57 µM
same,TGI,TK-10 renal,34.6 µM
same,GI50,HL-60(TB) leukemia,0.0189 µM
same,TGI,HL-60(TB) leukemia,0.0824 µM
same,GI50,ACHN renal,< 0.01 µM
same,TGI,ACHN renal,> 100 µM
same,GI50,CAKI-1 renal,< 0.01 µM
same,TGI,CAKI-1 renal,> 100 µM
same,GI50,SF-268 CNS,0.0685 µM
same,TGI,SF-268 CNS,> 100 µM
same,GI50,HOP-62 NSCLC,0.0182 µM
same,TGI,HOP-62 NSCLC,19.3 µM
same,GI50,K-562 leukemia,< 0.01 µM
same,TGI,K-562 leukemia,> 100 µM
same,GI50,A498 renal,0.0104 µM
same,TGI,A498 renal,1.5 µM
same,GI50,MOLT-4 leukemia,0.0399 µM
same,TGI,MOLT-4 leukemia,11.6 µM
same,GI50,NCI-H460 lung,0.0246 µM
same,TGI,NCI-H460 lung,20 µM
same,GI50,SF-295 CNS,< 0.01 µM
same,TGI,SF-295 CNS,42.8 µM
same,GI50,NCI-H23 lung,0.048 µM
same,TGI,NCI-H23 lung,41.7 µM
same,GI50,SK-OV-3 ovarian,< 0.01 µM
same,TGI,SK-OV-3 ovarian,12.7 µM
same,GI50,KM12 colon,< 0.01 µM
same,TGI,KM12 colon,11.2 µM
same,GI50,OVCAR-4 ovarian,0.0336 µM
same,TGI,OVCAR-4 ovarian,57.1 µM
O=c1c2ccccc2nc2n1CCc1c-2[nH]c2ccc(Br)cc12,TGI,OVCAR-3 ovarian,> 100 µM
same,TGI,MALME-3M melanoma,> 100 µM
same,TGI,NCI/ADR-RES ovarian,> 100 µM
same,TGI,HCT-116 colon,> 100 µM
same,TGI,A549 NSCLC,> 100 µM
same,TGI,LOX IMVI melanoma,> 100 µM
same,TGI,HOP-92 NSCLC,> 100 µM
same,TGI,OVCAR-5 ovarian,> 100 µM
same,TGI,OVCAR-8 ovarian,> 100 µM
same,TGI,RPMI-8226 leukemia,> 100 µM
same,TGI,UACC-257 melanoma,> 100 µM
same,TGI,HT29 colon,> 100 µM
same,TGI,IGROV1 ovarian,> 100 µM
same,TGI,SR leukemia,> 100 µM
same,TGI,M14 melanoma,> 100 µM
same,TGI,SNB-19 CNS,> 100 µM
same,TGI,SK-MEL-5 melanoma,> 100 µM
same,TGI,DU-145 prostate,> 100 µM
same,TGI,EKVX NSCLC,> 100 µM
same,TGI,HS 578T breast,> 100 µM
same,TGI,SK-MEL-28 melanoma,> 100 µM
same,TGI,CCRF-CEM leukemia,> 100 µM
same,TGI,SW-620 colon,> 100 µM
same,TGI,786-0 renal,> 100 µM
same,TGI,NCI-H226 lung,> 100 µM
same,TGI,HOP-62 NSCLC,> 100 µM
same,TGI,K-562 leukemia,> 100 µM
same,TGI,A498 renal,> 100 µM
same,TGI,MOLT-4 leukemia,> 100 µM
same,TGI,NCI-H460 lung,> 100 µM
same,TGI,SF-295 CNS,> 100 µM
same,TGI,NCI-H23 lung,> 100 µM
same,TGI,OVCAR-4 ovarian,> 100 µM
O=C(CCCn1cnc([N+](=O)[O-])n1)NCCCn1ccnc1[N+](=O)[O-],TGI,OVCAR-3 ovarian,> 100 µM
same,TGI,MALME-3M melanoma,> 100 µM
same,TGI,HCT-116 colon,> 100 µM
same,TGI,A549 NSCLC,> 100 µM
same,TGI,PC-3 prostate,> 100 µM
same,TGI,OVCAR-5 ovarian,> 100 µM
same,TGI,OVCAR-8 ovarian,> 100 µM
same,TGI,RPMI-8226 leukemia,> 100 µM
same,TGI,UACC-257 melanoma,> 100 µM
same,TGI,HT29 colon,> 100 µM
same,TGI,SK-MEL-2 melanoma,> 100 µM
same,TGI,SR leukemia,> 100 µM
same,TGI,SNB-75 CNS,> 100 µM
same,TGI,SK-MEL-5 melanoma,> 100 µM
same,TGI,EKVX NSCLC,> 100 µM
same,TGI,HS 578T breast,> 100 µM
same,TGI,SK-MEL-28 melanoma,> 100 µM
same,TGI,CCRF-CEM leukemia,> 100 µM
same,TGI,SW-620 colon,> 100 µM
same,TGI,U251 CNS,> 100 µM
same,TGI,HCC-2998 colon,> 100 µM
same,TGI,SN12C renal,> 100 µM
same,TGI,HCT-15 colon,> 100 µM
same,TGI,786-0 renal,> 100 µM
same,TGI,MCF7 breast,> 100 µM
same,TGI,SF-539 CNS,> 100 µM
same,TGI,NCI-H226 lung,> 100 µM
same,TGI,TK-10 renal,> 100 µM
same,TGI,HL-60(TB) leukemia,> 100 µM
same,TGI,ACHN renal,> 100 µM
same,TGI,SF-268 CNS,> 100 µM
same,TGI,HOP-62 NSCLC,> 100 µM
same,TGI,K-562 leukemia,> 100 µM
same,TGI,NCI-H522 lung,> 100 µM
same,TGI,A498 renal,> 100 µM
same,TGI,MOLT-4 leukemia,> 100 µM
same,TGI,NCI-H460 lung,> 100 µM
same,TGI,SF-295 CNS,> 100 µM
same,TGI,NCI-H23 lung,> 100 µM
same,TGI,KM12 colon,> 100 µM
